According to PubChem BioAssay (NCI):
Values joined by “and” are separate entries in the source; they are usually repeats but may differ in a detail not shown here. Equal entries are not always repeated.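 Exposure lasted 48 hours, with cells grown in 96-well plates and compounds tested at five concentrations. At the GI50, growth is halved. TGI: total growth inhibition.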

What was measured:
Experiment in all cases: NCI tumour cell line growth inhibition, 48 h
[1] = system: A549 NSCLC
[2] = system: EKVX NSCLC
[3] = system: IGROV1 ovarian
[4] = system: M14 melanoma
[5] = system: MDA-MB-435
[6] = system: NCI-H522 lung
[7] = system: OVCAR-3 ovarian
[8] = system: SK-MEL-2 melanoma
[9] = system: SK-MEL-5 melanoma
[10] = system: U251 CNS

| SMILES | TGI [1] | TGI [2] | TGI [3] | TGI [4] [µM] | TGI [5] | TGI [6] | TGI [7] | TGI [8] | TGI [9] | TGI [10] [µM] | GI50 [1] [µM] | GI50 [2] | GI50 [3] | GI50 [5] [µM] | GI50 [6] [µM] | GI50 [8] [µM] | GI50 [9] | GI50 [7] [µM] |
| --- | --- | --- | --- | --- | --- | --- | --- | --- | --- | --- | --- | --- | --- | --- | --- | --- | --- | --- |
| NC1=NCC(CN2CCCC2)O1 (stereo unspecified) | > 100 µM | > 100 µM | > 100 µM | > 100 | > 100 µM | > 100 µM | > 100 µM | > 100 µM | > 100 µM | > 100 |  |  |  |  |  |  |  |  |
| O=C1C=CC(=O)c2c(O)c(N3CCN(CCOCCO)CC3)c(Cl)c(O)c21 | 7.87 µM [middle of 4 runs] | 4.4 µM [middle of 4 runs] | 3.2 µM [middle of 4 runs] |  | 0.907 µM and 0.486 µM | 1.19 µM and 0.352 µM | 2.14 µM [middle of 4 runs] | 4.51 µM and 1.11 µM | 1.81 µM [middle of 4 runs] |  | 2.39 | 1.9 µM [middle of 4 runs] | 1.64 µM [middle of 4 runs] | 0.197 | 0.313 | 2.3 | 688 nM [middle of 4 runs] |  |
| Cc1ccccc1OC(C)C(=O)NN1C(=O)CC(=O)N(c2ccccc2)C1=S (stereo unspecified) | > 100 µM | > 100 µM | > 100 µM | > 100 | > 100 µM | > 100 µM | > 100 µM | > 100 µM | > 100 µM | > 100 |  |  |  |  |  |  |  |  |
| CO[C@H]1C[C@H](O[C@H]2CC[C@]3(C=O)[C@H]4CC[C@]5(C)[C@@H](C6=CC(=O)OC6)CC[C@]5(O)[C@@H]4CC[C@]3(O)C2)O[C@H](C)[C@H]1O | 0.198 µM | 0.79 µM | 7.86 µM | 4.19 | 1.47 µM | 0.499 µM | 0.556 µM | 2.04 µM | 0.385 µM | 2.63 |  |  |  |  |  |  |  |  |
| COC(=O)C1=C(O)C(C(=O)OC)[C@]2(O)[C@H](C(=O)OC)[C@H]1C[C@@H](c1ccc([N+](=O)[O-])cc1)[C@H]2C(=O)OC (stereo partly specified) | 68.1 µM | > 100 µM | 30.5 µM | 44.5 | > 100 µM | 8.58 µM | > 100 µM | 46.6 µM | 30 µM | 28.6 |  |  |  |  |  |  |  |  |
| Cc1csc(NC(=NCCN2CCOCC2)Nc2nc(C)cs2)n1 | > 100 µM | > 100 µM | > 100 µM |  |  | > 100 µM | > 100 µM | > 100 µM | > 100 µM | > 100 |  |  |  |  |  |  |  |  |
| NCCC1CN(C(=O)OCc2ccccc2)c2ccccc21 (stereo unspecified) | > 53.6 µM | 84.4 µM | 33 µM | 27.4 | 30 µM | 28.8 µM | 45.6 µM | 36.3 µM | 24.7 µM | 32.4 |  |  |  |  |  |  |  |  |
| O=C(NNCc1ccc(Cl)cc1)Nc1cccc2ccccc12 |  | > 100 µM | > 100 µM | > 100 | > 100 µM | > 100 µM | > 100 µM | > 100 µM | > 100 µM | > 100 |  |  |  |  |  |  |  |  |
| COC(=O)c1c(-c2ccc(Cl)cc2)cc2c3ccccc3n(C)c2c1C(=O)OC | > 100 µM | > 100 µM | > 100 µM | > 100 | > 100 µM | > 100 µM | > 100 µM | > 100 µM | > 100 µM | > 100 |  |  |  |  |  |  |  |  |
| COc1ccccc1CNCCCCCCCCCCCCN1C(=O)c2ccc3c4c(ccc(c24)C1=O)C(=O)N(CCCCCCCCCCCCNCc1ccccc1OC)C3=O | > 5 µM | > 50 µM | > 50 µM |  |  | > 50 µM |  | > 50 µM | > 50 µM |  | > 5 | > 50 µM | > 50 µM |  | > 50 | 1.99 | 48.9 µM |  |
| Cn1c2ccccc2n2c3ncccc3c(=S)c(C#N)c12 | > 100 µM | > 100 µM | > 100 µM | > 100 | > 100 µM | > 100 µM | > 100 µM | > 100 µM | > 100 µM | > 100 |  |  |  |  |  |  |  |  |
| O=C1c2ccccc2C(=O)N1c1nc(-c2ccc(Cl)cc2)cc(N2N=C(c3ccc(Br)cc3)CC2c2ccccc2)n1 (stereo unspecified) | 17.4 µM | 5.99 µM | > 32.6 µM | > 36.1 | 2.62 µM | 5.51 µM | 2.65 µM | > 42.2 µM | 5.02 µM | 5.99 |  |  |  |  |  |  |  |  |
| CCOC(=O)c1cnccc1CC1(C#N)c2ccccc2C=CN1C(=O)c1ccccc1 (stereo unspecified) | > 100 µM | > 100 µM | 39.9 µM | 79.1 | > 100 µM | 54.8 µM | > 100 µM | 41.4 µM | 37.8 µM | > 100 |  |  |  |  |  |  |  |  |
| CCN(CC)c1nc(N(C)C)c2ccccc2n1 | > 100 µM | 51.1 µM | > 100 µM | 72.1 | > 100 µM | 96.9 µM |  | > 100 µM | 35 µM | > 100 |  |  |  |  |  |  |  |  |
| Cc1nc2ccc(Cl)cc2c2c1CCN2c1ccccc1 | 46.6 µM | 68.2 µM | > 100 µM |  | 21.3 µM | 28.1 µM | 44.1 µM |  | 20.7 µM | 35.2 |  |  |  |  |  |  |  |  |
| C=C(C)[C@@H]1CC[C@]2(C(=O)O)CC[C@]3(C)[C@H](CCC4[C@@]5(C)CC[C@H](C(=O)/C=C/c6ccc(O)c(O)c6)C(C)(C)[C@@H]5CC[C@]43C)[C@@H]12 (stereo partly specified) | > 100 µM | > 100 µM | > 100 µM | 14.7 | 16.7 µM |  | 22.5 µM | 38 µM | 18.8 µM |  |  |  |  |  |  |  |  |  |
| CC1(C2CCC3(C)OC3C2)CO1 (stereo unspecified) | > 100 µM | > 100 µM | > 100 µM | > 100 |  | > 100 µM | > 100 µM | > 100 µM | > 100 µM | > 100 |  |  |  |  |  |  |  |  |
| CCN(CC)c1ccc2cc(-c3nc4ccccc4c(=O)[nH]3)c(=N)oc2c1 | > 100 µM | > 100 µM | > 100 µM | > 100 | > 100 µM | > 100 µM |  | > 100 µM | > 100 µM | > 100 |  |  |  |  |  |  |  |  |
| CO[C@]1(CN2CCN3CCCC[C@@H]3C2)/C=C/C[C@H](C)[C@@H](C)S(=O)(=O)NC(=O)c2ccc3c(c2)N(C[C@@H]2CC[C@H]21)C[C@@]1(CCCc2cc(Cl)ccc21)CO3 | 10.6 µM | 5.1 µM |  |  | 2.42 µM | 1.93 µM | 3.03 µM | 0.183 µM | 3.11 µM |  | 2.75 | 1.55 µM |  | 1.05 | 0.37 | 0.0454 | 1.71 µM | 1.62 |
